Data: patent publication US5936065A, “CS-1 peptidomimetics, compositions and methods of using the same” (Cytel Corporation, priority 1995, dated 1999)
Square brackets hold non-standard residues; d marks the D form. Peptide text beside a SMILES is read from it. * marks the point of attachment. NHOctadecyl = CCCCCCCCCCCCCCCCCCN*; Cya = N[C@@H](CS(=O)(=O)O)C(=O)O; NMeF = CN[C@@H](Cc1ccccc1)C(=O)O; Cha = N[C@@H](CC1CCCCC1)C(=O)O; Phg = N[C@H](C(=O)O)c1ccccc1; X8 = CCCCCCCCCCCCCCCCCCO*; Nle = CCCC[C@H](N)C(=O)O; Piperidide = C1CCN(*)CC1; X7 = O=C(CO*)OCc1ccccc1; NHDecyl = CCCCCCCCCCN*; PhAc = O=C(Cc1ccccc1)*; ODecyl = CCCCCCCCCCO*; X1 = CCCCCCCCCCCCCCO*; X4 = CCN(CC)C(=O)CO*; Bz = O=C(c1ccccc1)*; OBn = c1ccc(CO*)cc1; X5 = CCCCCCCCCCCCO*; Ahx = NCCCCCC(=O)O; X6 = O=C(O)CO*

Target: T1, VLA-4 receptor (Homo sapiens, UniProt P05556+P13612)
T1 construct: inflammatory cells that contain the VLA-4 receptor [Jurkat cells; host or cells: Jurkat cells (human T lymphoblastic line)
Experiment: In vitro binding assay: inhibition of binding of 51Cr-labeled Jurkat cells to solid phase-bound CS-1 compound (SEQ ID NO:1)
Type: cell-based
Description: Binding inhibition is measured here as a concentration of compound that inhibits one-half the binding between a standard number of Jurkat cells and a standard amount of CS-1 compound bound to the surface of a microtiter plate well. Those concentrations are conveniently expressed as IC50 values, smaller numbers indicating a lower concentration required to inhibit 50 percent binding and therefore greater potency. Further specifics of this assay are provided hereinafter.
Jurkat cells (ATCC TIB 152), a human T lymphoblastic line, labeled with ^51 chromium were used to assay in vitro binding inhibition provided by various compounds discussed herein.
The plates were prepared as follows: The 25-mer CS-1 compound (SEQ ID NO:1) dissolved at 0.5-1 μg/ml in a buffer of 0.1M NaHCO3 at pH 9.5 that also contained 10 μg/ml of bovine serum albumin (BSA) or a conjugate of the CS-1 compound linked to ovalbumin (CS-1-OVA) dissolved at 1-2.5 μg/ml in the same buffer was used as the substrate. Each well of the microtiter plates was coated with 50 μl of substrate or buffer alone for controls. The wells were permitted to dry out completely and were then rinsed twice with PBS at pH 7.4. Non-specific binding sites of each well were then blocked using 200 μl per well of RPMI/1 percent BSA for two hours at room temperature.
Jurkat cells (3-5×10^6 cells) were placed into a 15 ml Falcon™ round-bottom tube with a cap. The tube was centrifuged, and the extra medium was then removed.
Two hundred microliters of a ^51 Cr labeling solution were added to the centrifuged cells and maintained in contact with the cells for 90-120 minutes in a warm room. […] Longer contact times provide a greater amount of labeling but lower cell viability.
The labeled cells are washed with (i) complete medium, (ii) 1 mM EDTA/PBS and then (iii) RPM1/1 percent BSA free of serum components. The cells are centrifuged after each washing. The cells are finally resuspended in serum-free RPMI/1 percent BSA at a concentration of 1×10^6 viable cells/ml, which provides a concentration that is diluted by one-half in the assay.
Inhibitor compounds are prepared as stock solutions at 20 mg/ml in DMSO in 1.5 ml cryogenic screwcap vials, and were stored at -70° C. Using Flow™ round-bottom or V-bottom microtiter plates, the inhibitor compounds were prepared at twice the assay concentration in RPMI/1 percent BSA at 60 μl/well.
Four initial dilutions were typically used.
The ^51 Cr-labeled cells ([…] at 60 μl/well) were then admixed with the diluted compound solutions. The admixtures were maintained at room temperature (about 22° C.) for 30 minutes.
One hundred microliters of each inhibitor compound/cell admixture were transferred to the substrate-coated wells. This was done in triplicate for each dilution. The resulting plates were incubated for 30 minutes at 37° C. and then washed gently three times with RPMI/1 percent BSA at 200 μl/well. Binding was observed microscopically, particularly after the second wash.
The bound cells were then lysed by the addition of a 0.5 percent solution of sodium dodecylsulfate in water at 100 μl/well. The resulting solutions were then processed for counting and calculation of IC50 values following usual procedures.
The data of Table 1 are normalized to the binding of SEQ ID NO:3. […] Multiple assays for the same compound were averaged.

[1] = binding inhibition potency (IC50) normalized to standard compound of SEQ ID NO:3 = 1, multiple assays averaged, about one-tenth or less assigned zero
[2] = prodrug compounds, potency before enzymatic conversion to active form, relative to SEQ ID NO:3 = 1

T1 sequence (P13612 34-1032): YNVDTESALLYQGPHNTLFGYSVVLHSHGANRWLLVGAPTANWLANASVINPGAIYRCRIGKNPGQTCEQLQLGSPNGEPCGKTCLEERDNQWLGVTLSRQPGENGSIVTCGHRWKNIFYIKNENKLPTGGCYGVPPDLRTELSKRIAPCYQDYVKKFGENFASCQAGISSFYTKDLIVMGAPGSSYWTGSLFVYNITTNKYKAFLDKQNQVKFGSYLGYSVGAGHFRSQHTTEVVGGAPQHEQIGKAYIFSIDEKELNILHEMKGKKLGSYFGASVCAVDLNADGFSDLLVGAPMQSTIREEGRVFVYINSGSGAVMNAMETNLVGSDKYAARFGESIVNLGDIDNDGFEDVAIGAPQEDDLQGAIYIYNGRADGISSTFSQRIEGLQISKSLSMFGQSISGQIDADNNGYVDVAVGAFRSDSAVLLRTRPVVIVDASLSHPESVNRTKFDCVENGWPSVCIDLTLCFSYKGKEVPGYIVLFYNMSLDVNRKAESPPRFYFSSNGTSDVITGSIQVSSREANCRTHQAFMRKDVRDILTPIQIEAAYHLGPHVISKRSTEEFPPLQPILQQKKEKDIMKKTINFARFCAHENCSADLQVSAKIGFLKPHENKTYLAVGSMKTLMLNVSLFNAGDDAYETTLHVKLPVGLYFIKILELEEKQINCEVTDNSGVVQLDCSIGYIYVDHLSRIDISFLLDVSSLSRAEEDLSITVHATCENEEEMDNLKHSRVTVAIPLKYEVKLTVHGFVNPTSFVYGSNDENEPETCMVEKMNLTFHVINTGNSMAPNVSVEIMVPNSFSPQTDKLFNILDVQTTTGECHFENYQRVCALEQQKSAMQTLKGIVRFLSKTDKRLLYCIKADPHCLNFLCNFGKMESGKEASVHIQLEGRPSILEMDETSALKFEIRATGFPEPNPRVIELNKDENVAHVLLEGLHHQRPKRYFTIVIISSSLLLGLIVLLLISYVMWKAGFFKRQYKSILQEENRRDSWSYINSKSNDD
T1 sequence (P05556 21-798): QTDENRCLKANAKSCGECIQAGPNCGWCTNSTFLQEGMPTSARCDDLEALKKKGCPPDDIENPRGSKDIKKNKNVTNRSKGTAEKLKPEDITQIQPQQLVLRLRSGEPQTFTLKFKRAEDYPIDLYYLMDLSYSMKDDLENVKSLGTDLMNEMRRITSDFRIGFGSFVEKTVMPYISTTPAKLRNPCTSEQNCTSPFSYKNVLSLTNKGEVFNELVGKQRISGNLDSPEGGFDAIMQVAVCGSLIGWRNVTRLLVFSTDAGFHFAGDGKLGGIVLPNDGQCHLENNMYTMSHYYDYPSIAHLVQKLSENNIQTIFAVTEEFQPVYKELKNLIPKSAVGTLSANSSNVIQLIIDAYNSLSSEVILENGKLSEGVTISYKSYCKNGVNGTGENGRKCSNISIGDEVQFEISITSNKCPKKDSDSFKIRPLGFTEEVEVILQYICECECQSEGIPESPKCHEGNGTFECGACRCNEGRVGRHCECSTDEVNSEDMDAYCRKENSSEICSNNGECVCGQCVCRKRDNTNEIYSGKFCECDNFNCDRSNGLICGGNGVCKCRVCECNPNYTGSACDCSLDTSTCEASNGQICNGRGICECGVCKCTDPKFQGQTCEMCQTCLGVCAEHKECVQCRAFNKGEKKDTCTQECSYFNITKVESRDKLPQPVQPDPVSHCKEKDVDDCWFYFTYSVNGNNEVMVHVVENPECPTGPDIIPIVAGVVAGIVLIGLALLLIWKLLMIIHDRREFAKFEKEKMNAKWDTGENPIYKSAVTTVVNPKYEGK

Structure (SMILES)	Relative Potency [1]	Relative Potency [2]	other results
NC(=O)[C@H]1CCCN1C(=O)[C@H](Cc1ccccc1)NC(=O)[C@H](CC(=O)O)NC(=O)[C@H](CC1CCCCC1)NC(=O)c1ccccc1 [896.31] (Bz-[Cha]DF[dP]-NH2)	11	–	–
CC(C)C[C@H](NC(=O)c1ccccc1)C(=O)N[C@@H](CC(=O)O)C(=O)N[C@H](C(=O)N1CCC[C@H]1C(N)=O)C(C)C [896.35]	16	–	–
CC(C)C[C@H](NC(=O)Cc1ccccc1)C(=O)N[C@@H](CS)C(=O)N[C@@H](Cc1ccccc1)C(=O)N1CCC[C@@H]1C(N)=O [896.59] (PhAc-LCF[dP]-NH2)	0	–	–
CC(C)C[C@H](NC(=O)Cc1ccccc1)C(=O)N[C@@H](CC(=O)O)C(=O)N[C@H](C(=O)N1CCC[C@@H]1C(N)=O)c1ccccc1 [896.69] (PhAc-LD[Phg][dP]-NH2)	61	–	–
CC(C)C[C@H](NC(=O)c1ccccc1)C(=O)N[C@@H](CC(=O)O)C(=O)N[C@H](C(=O)N1CCC[C@@H]1C(N)=O)C(C)C [926.02]	9.6	–	–
O=C(O)C[C@H](NC1CCN(C(=O)Cc2ccccc2)CC1)C(=O)N[C@@H](Cc1ccccc1)C(=O)N1CCCC1 [992.01]	0	–	–
CC(C)C[C@H](NC(=O)Cc1ccccc1)C(=O)N[C@@H](CC(=O)O)C(=O)N[C@@H](Cc1ccccc1)C(N)=O [997.12] (PhAc-Leu-Asp-Phe-NH2)	.48	–	–
CC(C)C[C@H](NC(=O)Cc1ccccc1)C(=O)N[C@@H](CC(=O)O)C(=O)NC1Cc2ccccc2N(CCN2CCOCC2)C1=O (stereo partly drawn) [997.18]	20	–	–
CC(C)C[C@H](NC(=O)Cc1ccccc1)C(=O)NC(CC(=O)O)(CC(=O)O)C(=O)N[C@@H](Cc1ccccc1)C(=O)N1CCCCC1 [1026.01]	0	–	–
CC(C)C[C@H](NC(=O)Cc1ccccc1)C(=O)NC(C(=O)O)C(=O)N[C@@H](Cc1ccccc1)C(=O)N1CCCCC1 (stereo partly drawn) [1026.02]	0	–	–
CC(C)C[C@H](NC(=O)Cc1ccccc1)C(=O)N[C@@H](CS(=O)(=O)O)C(=O)N[C@@H](Cc1ccccc1)C(=O)N1CCCCC1 [1026.06] (PhAc-Leu-[Cya]-Phe-Piperidide)	0	–	–
CC(C)C[C@H](NC(=O)Cc1ccccc1)C(=O)N[C@@H](CP(=O)(O)O)C(=O)N[C@@H](Cc1ccccc1)C(=O)N1CCCCC1 [1026.07]	0	–	–
CC(C)C[C@H](NC(=O)Cc1ccccc1)C(=O)N[C@@H](CS(N)(=O)=O)C(=O)N[C@@H](Cc1ccccc1)C(=O)N1CCCCC1 [1026.08]	0	–	–
CC(C)CN(CC(=O)Nc1ccccc1)C(=O)CN(CC(=O)O)C(=O)CN(Cc1ccccc1)C(=O)C1CCCC1 [1032.02]	.63	–	–
CC(C)C[C@@H](CN[C@@H](CC(=O)O)C(=O)N[C@@H](Cc1ccccc1)C(=O)N1CCCCC1)NC(=O)Cc1ccccc1 [1041.01]	0	–	–
CC(C)C[C@H](NC(=O)Cc1ccccc1)C(=O)N[C@@H](CC(=O)O)C(=O)N1C(=O)N(Cc2ccccc2)C(=O)[C@H]1Cc1ccccc1 [1047.07]	.38	–	–
CC(C)C[C@H](NC(=O)Cc1ccccc1)C(=O)N[C@@H](CC(=O)O)C(=O)N1C(=O)N(Cc2ccccc2)C(=O)[C@@H]1Cc1ccccc1 [1047.08]	.38	–	–
CC(C)C[C@H](NC(=O)Cc1ccccc1)C(=O)N[C@@H](CC(=O)O)C(=O)N[C@@H](Cc1ccccc1)C(=O)NCCCO [1051.05]	25	–	–
NC(=O)[C@H]1CCCN1C(=O)[C@H](Cc1ccccc1)NC(=O)[C@H](CC(=O)O)NC(=O)CCCCC1CCSS1 (stereo partly drawn) [1056.09]	1.1	–	–

Structure (SMILES)	Relative Potency [1]	Relative Potency [2]	other results
O=C(O)CC(C(=O)N[C@@H](Cc1ccccc1)C(=O)N1CCCCC1)N1CC[C@H](NC(=O)Cc2ccccc2)C1=O (stereo partly drawn) [1057.01]	.88	–	–
CC(C)C[C@H](NC(=O)Cc1ccccc1)C(=O)N[C@@H](CC(=O)O)C(=O)NC1CCCCN(CC(N)=O)C1=O (stereo partly drawn) [1057.06]	97	–	–
CC(C)C[C@H](NC(=O)Cc1ccccc1)C(=O)N[C@@H](CC(=O)OCC(=O)OCc1ccccc1)C(=O)N[C@@H](Cc1ccccc1)C(=O)N1CCC[C@@H]1C(N)=O [1067.01] (PhAc-LD(X7)F[dP]-NH2)	–	.97	–
CC(C)C[C@H](NC(=O)Cc1ccccc1)C(=O)N[C@@H](CC(=O)OCC(=O)O)C(=O)N[C@@H](Cc1ccccc1)C(=O)N1CCC[C@@H]1C(N)=O [1067.02] (PhAc-LD(X6)F[dP]-NH2)	–	.81	–
CCCCCCCCCCCCCCCCCCNC(=O)CCCCCNC(=O)[C@@H]1CCCN1C(=O)[C@H](Cc1ccccc1)NC(=O)[C@H](CC(=O)O)NC(=O)[C@H](CC(C)C)NC(=O)Cc1ccccc1 [1068.01, phenylacetyl-Leu-Asp-Phe-Pro-NH(CH2)5 C(O)NHC18 H37] (PhAc-LDFP[Ahx]-NHOctadecyl)	–	.91	binding inhibition, in words (compared with standard 10-mer of SEQ ID NO:3 or other compounds): binding inhibition similar to that exhibited by the standard 10-mer compound of SEQ ID NO:3
CCCCCCCCCCNC(=O)[C@@H]1CCCN1C(=O)[C@H](Cc1ccccc1)NC(=O)[C@H](CC(=O)O)NC(=O)[C@H](CC(C)C)NC(=O)Cc1ccccc1 [1068.04] (PhAc-LDFP-NHDecyl)	–	2.13	–
CCCCCCCCCCCCCCCCCC(=O)OC1CCN(C(=O)[C@H](Cc2ccccc2)NC(=O)[C@H](CC(=O)O)NC(=O)[C@H](CC(C)C)NC(=O)Cc2ccccc2)CC1 [1068.05]	–	.63	–
CCCCCCCCCC(=O)OC1CCN(C(=O)[C@H](Cc2ccccc2)NC(=O)[C@H](CC(=O)O)NC(=O)[C@H](CC(C)C)NC(=O)Cc2ccccc2)CC1 [1068.06]	–	.63	–
CC(C)C[C@H](NC(=O)Cc1ccccc1)C(=O)N[C@@H](CC(=O)OCc1ccccc1)C(=O)N[C@@H](Cc1ccccc1)C(=O)N1CCC[C@@H]1C(N)=O [1068.07] (PhAc-LD(OBn)F[dP]-NH2)	–	0	–
CCCCCCCCCCOC(=O)C[C@H](NC(=O)[C@H](CC(C)C)NC(=O)Cc1ccccc1)C(=O)N[C@@H](Cc1ccccc1)C(=O)N1CCC[C@@H]1C(N)=O [1068.09] (PhAc-LD(ODecyl)F[dP]-NH2)	–	0	–
CCCCCCCCCCCCOC(=O)C[C@H](NC(=O)[C@H](CC(C)C)NC(=O)Cc1ccccc1)C(=O)N[C@@H](Cc1ccccc1)C(=O)N1CCC[C@@H]1C(N)=O [1068.10] (PhAc-LD(X5)F[dP]-NH2)	–	0	–
CCCCCCCCCCCCCCOC(=O)C[C@H](NC(=O)[C@H](CC(C)C)NC(=O)Cc1ccccc1)C(=O)N[C@@H](Cc1ccccc1)C(=O)N1CCC[C@@H]1C(N)=O [1068.11] (PhAc-LD(X1)F[dP]-NH2)	–	0	–
CCCCCCCCCCCCCCCCCCOC(=O)C[C@H](NC(=O)[C@H](CC(C)C)NC(=O)Cc1ccccc1)C(=O)N[C@@H](Cc1ccccc1)C(=O)N1CCC[C@@H]1C(N)=O [1068.12] (PhAc-LD(X8)F[dP]-NH2)	–	0	–
CCN(CC)C(=O)COC(=O)C[C@H](NC(=O)[C@H](CC(C)C)NC(=O)Cc1ccccc1)C(=O)N[C@@H](Cc1ccccc1)C(=O)N1CCC[C@@H]1C(N)=O [1068.13] (PhAc-LD(X4)F[dP]-NH2)	–	0	–
CC(C)C[C@H](NC(=O)Cc1ccccc1)C(=O)N[C@@H](CC(=O)O)C(=O)N[C@@H](Cc1ccccc1)C(=O)N1CCSCC1 [1111.02]	450	–	–
CC(C)C[C@H](NC(=O)Cc1ccccc1)C(=O)N[C@@H](CC(=O)O)C(=O)N[C@@H](Cc1ccccc1)C(=O)N1CCN(CCOCCO)CC1 [1111.07]	510	–	–
CCCC[C@H](NC(=O)Cc1ccccc1)C(=O)N[C@@H](CC(=O)O)C(=O)N[C@@H](Cc1ccccc1)C(=O)N1CCC[C@@H]1C(N)=O [1160.02] (PhAc-[Nle]DF[dP]-NH2)	49	–	–
CCOC(=O)C[C@H](NC(=O)[C@H](CC(C)C)NC(=O)Cc1ccccc1)C(=O)N[C@@H](Cc1ccccc1)C(=O)N1CCC[C@@H]1C(N)=O [1190.01] (PhAc-LD(OEt)F[dP]-NH2)	–	0	–
CC(C)C[C@H](NC(=O)Cc1ccccc1)C(=O)N[C@@H](CC(=O)O)C(=O)N(C)[C@@H](Cc1ccccc1)C(=O)N1CCC[C@@H]1C(N)=O [1190.05] (PhAc-LD[NMeF][dP]-NH2)	0	–	–
